Here are results for 14 compounds from US20260355196A1, “INHIBITORS AND DEGRADERS OF PIP4K PROTEIN” (Larkspur Biosciences, Inc., priority 2023, published 2026).

For orientation: DC50 means the midpoint of the concentration-degradation curve.

Molecules are shown by their SMILES.

The target of this assay is T1, PIP4K2C (Homo sapiens, UniProt Q8TBX8).
T1 sequence (Q8TBX8 1-421): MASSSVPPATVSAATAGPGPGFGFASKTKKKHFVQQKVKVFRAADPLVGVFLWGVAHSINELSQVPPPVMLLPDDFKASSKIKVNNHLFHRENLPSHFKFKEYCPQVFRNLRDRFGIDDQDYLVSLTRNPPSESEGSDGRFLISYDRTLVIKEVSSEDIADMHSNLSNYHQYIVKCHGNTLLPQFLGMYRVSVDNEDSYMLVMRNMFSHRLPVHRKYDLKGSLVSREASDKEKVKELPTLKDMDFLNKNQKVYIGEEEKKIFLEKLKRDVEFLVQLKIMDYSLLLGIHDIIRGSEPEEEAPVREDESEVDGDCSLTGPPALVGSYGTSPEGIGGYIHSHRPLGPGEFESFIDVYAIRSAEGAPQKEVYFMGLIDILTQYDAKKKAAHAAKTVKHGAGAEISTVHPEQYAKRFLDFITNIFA
Description: HiBiT PIP4K2C degradation assay in MOLT-4 cells (endogenous PIP4K2C C-terminally tagged with HiBiT). The class given is cell-based. Details: untagged in primary human PBMCs and monocyte-derived dendritic cells. The settings on record: 24 hours incubation, MOLT-4, top concentration 10 micromolar; read-out: HiBIT-degradation MOLT4 PIP4k2C 24 hours DC50. The source says: Example B-2: HiBiT PIP4K2C degradation assay
Materials: MOLT-4, a human T lymphoblast cell line (see https://www.atcc.org/products/crl-1582, herein incorporated by reference in its entirety), was genetically engineered using CRISPR-Cas9 by Synthego Corporation (Redwood City, CA) to C-terminally tag endogenous PIP4K2C with HiBiT peptide. Following clonal selection, genotype was confirmed by Sanger sequencing. MO LT-4 were maintained using RPMI-1640 medium from Gibco (Grand Island, NY, catalog number 11875-085) supplemented with 10% fetal bovine serum (FBS) from VWR (Philadelphia, PA, catalog number 97068-085). For HiBiT assays the cells were resuspended in RPMI-1640 medium without phenol read from Gibco (Grand Island, NY, catalog number 11835-030) supplemented with 10% FBS. Nano-Glo® HiBiT Lytic Assay System was purchased from Promega (Madison, WI, Catalog number N3030). Cell culture flasks and 384-well microplates were purchased from Corning (Glendale, AZ).
To study PIP4K2C degradation, 384-well plates were plated with a 10-point dose response curve, 3-fold dilution, in duplicate with a top starting concentration of 10 micromolar. Subsequently 22,500 cells were added to each well and incubated at 37 C in 5% C02 for 24 hours or 6 hours. At the end of the incubation time, cells were treated with the Nano-Glo® HiBiT Lytic Detection System following the manufacturer's instructions. Luminescence was measured with a PHERAstar FSX plate reader (BMG Labtech, Cary, NC). The Levenberg-Marquardt algorithm was used to fit a Hill equation to dose-response data to calculate DC50 values (see Table 6).
For orientation: With HiBiT, luminescence reflects the tagged protein that the partner subunit can reach.
In the case of `O=C1CCC(N2Cc3cc(OC4CCN(C(=O)CN5CCN(C(=O)[C@H]6CCC[C@@H](Nc7ncc(Cl)c(-c8cccc(-c9ccccc9)c8)n7)C6)CC5)CC4)ccc3C2=O)C(=O)N1` (relative stereo) [Compound 82, cis-3-(5-((1-(2-(4-(3-((4-([1,1′-biphenyl]-3-yl)-5-chloropyrimidin-2-yl)amino)cyclohexane-1-carbonyl)piperazin-1-yl)acetyl)piperidin-4-yl)oxy)-1-oxoisoindolin-2-yl)piperidine-2,6-dione], the DC50 was less than 500 nM.
The value for `Cn1c(=O)n(C2CCC(=O)NC2=O)c2ccc(C3CCN(CCC4CCN(C(=O)[C@H]5CCC[C@@H](Nc6ncc(Cl)c(-c7cccc(-c8ccc(F)cc8)c7)n6)C5)CC4)CC3)cc21` (relative stereo) [Compound 279, cis-3-(5-(1-(2-(1-(3-((5-chloro-4-(4′-fluoro-[1,1′-biphenyl]-3-yl)pyrimidin-2-yl)amino)cyclohexane-1-carbonyl)piperidin-4-yl)ethyl)piperidin-4-yl)-3-methyl-2-oxo-2,3-dihydro-1H-benzo[d]imidazol-1-yl)piperidine-2,6-dione] was less than 500 nM; that for `O=C1CCC(Nc2ccc(C3CCN(CC(=O)N4CCC5(C4)CN(C(=O)[C@H]4CCC[C@@H](Nc6ncc(Cl)c(-c7cccc(-c8ccc(F)cc8)c7)n6)C4)C5)CC3)c(F)c2)C(=O)N1` (relative stereo) [Compound 284, cis-3-((4-(1-(2-(2-(3-((5-chloro-4-(4′-fluoro-[1,1′-biphenyl]-3-yl)pyrimidin-2-yl)amino)cyclohexane-1-carbonyl)-2,6-diazaspiro[3.4]octan-6-yl)-2-oxoethyl)piperidin-4-yl)-3-fluorophenyl)amino)piperidine-2,6-dione] was less than 500 nM.
As to `Cn1c(=O)n(C2CCC(=O)NC2=O)c2ccc(C3CCN(CCC4CCN(C(=O)[C@H]5CCC[C@@H](Nc6ncc(F)c(-c7cccc(-n8ccccc8=O)c7)n6)C5)CC4)CC3)cc21` (relative stereo) [Compound 291, cis-3-(5-(1-(2-(1-(3-((5-fluoro-4-(3-(2-oxopyridin-1(2H)-yl)phenyl)pyrimidin-2-yl)amino)cyclohexane-1-carbonyl)piperidin-4-yl)ethyl)piperidin-4-yl)-3-methyl-2-oxo-2,3-dihydro-1H-benzo[d]imidazol-1-yl)piperidine-2,6-dione], the DC50 was less than 500 nM.
Turning to `O=C1CCC(Oc2ccc(N3CCC(O)(CC(=O)N4CCN(C(=O)[C@H]5CCC[C@@H](Nc6ncc(Cl)c(-c7cccc(-c8ccc(F)cc8)c7)n6)C5)CC4)CC3)c(F)c2)C(=O)N1` (relative stereo) [Compound 292, cis-3-(4-(4-(2-(4-(3-((5-chloro-4-(4′-fluoro-[1,1′-biphenyl]-3-yl)pyrimidin-2-yl)amino)cyclohexane-1-carbonyl)piperazin-1-yl)-2-oxoethyl)-4-hydroxypiperidin-1-yl)-3-fluorophenoxy)piperidine-2,6-dione], the DC50 is greater than 5000 nM.
With `O=C1CCC(Nc2ccc(N3CCC(N4CCC(CNC(=O)[C@H]5CCC[C@@H](Nc6ncc(F)c(-c7cccc(-n8ccccc8=O)c7)n6)C5)CC4)CC3)cc2)C(=O)N1` (relative stereo) [Compound 297, cis-N-((1′-(4-((2,6-dioxopiperidin-3-yl)amino)phenyl)-[1,4′-bipiperidin]-4-yl)methyl)-3-((5-fluoro-4-(3-(2-oxopyridin-1(2H)-yl)phenyl)pyrimidin-2-yl)amino)cyclohexane-1-carboxamide], the DC50 was less than 500 nM.
The value for `Cn1nc(C2CCC(=O)NC2=O)c2ccc(C3CCN(CCC4CCN(C(=O)[C@H]5CCC[C@@H](Nc6ncc(F)c(-c7cccc(-n8ccccc8=O)c7)n6)C5)CC4)CC3)cc21` (relative stereo) [Compound 298, 3-(6-(1-(2-(1-(cis-3-((5-fluoro-4-(3-(2-oxopyridin-1(2H)-yl)phenyl)pyrimidin-2-yl)amino)cyclohexane-1-carbonyl)piperidin-4-yl)ethyl)piperidin-4-yl)-1-methyl-1H-indazol-3-yl)piperidine-2,6-dione] was less than 500 nM.
Turning to `O=C1CCC(n2c(=O)oc3cc(N4CCC(N5CCC(CNC(=O)[C@H]6CCC[C@@H](Nc7ncc(F)c(-c8cccc(-n9ccccc9=O)c8)n7)C6)CC5)CC4)ccc32)C(=O)N1` (relative stereo) [Compound 299, cis-N-((1′-(3-(2,6-dioxopiperidin-3-yl)-2-oxo-2,3-dihydrobenzo[d]oxazol-6-yl)-[1,4′-bipiperidin]-4-yl)methyl)-3-((5-fluoro-4-(3-(2-oxopyridin-1(2H)-yl)phenyl)pyrimidin-2-yl)amino)cyclohexane-1-carboxamide], the DC50 is less than 500 nM.
For `O=C1CCC(n2c(=O)oc3cc(C4CCN(C[C@H]5CC[C@H](NC(=O)[C@H]6CCC[C@@H](Nc7ncc(F)c(-c8cccc(-n9ccccc9=O)c8)n7)C6)CC5)CC4)ccc32)C(=O)N1` (relative stereo) [Compound 306, cis-trans-N-(4-((4-(3-(2,6-dioxopiperidin-3-yl)-2-oxo-2,3-dihydrobenzo[d]oxazol-6-yl)piperidin-1-yl)methyl)cyclohexyl)-3-((5-fluoro-4-(3-(2-oxopyridin-1(2H)-yl)phenyl)pyrimidin-2-yl)amino)cyclohexane-1-carboxamide], the DC50 is less than 500 nM.
For `Cn1nc(C2CCC(=O)NC2=O)c2ccc(C3CCN(C[C@H]4CC[C@H](NC(=O)[C@H]5CCC[C@@H](Nc6ncc(F)c(-c7cccc(-n8ccccc8=O)c7)n6)C5)CC4)CC3)cc21` (relative stereo) [Compound 307, cis-trans-N-(4-((4-(3-(2,6-dioxopiperidin-3-yl)-1-methyl-1H-indazol-6-yl)piperidin-1-yl)methyl)cyclohexyl)-3-((5-fluoro-4-(3-(2-oxopyridin-1(2H)-yl)phenyl)pyrimidin-2-yl)amino)cyclohexane-1-carboxamide] the value was 1000 to 5000 nM; for `O=C1CCC(n2c(=O)oc3cc(N4CCC(CN5CCC(NC(=O)[C@H]6CCC[C@@H](Nc7ncc(F)c(-c8cccc(-n9ccccc9=O)c8)n7)C6)CC5)CC4)ccc32)C(=O)N1` (relative stereo) [Compound 320, cis-N-(1-((1-(3-(2,6-dioxopiperidin-3-yl)-2-oxo-2,3-dihydrobenzo[d]oxazol-6-yl)piperidin-4-yl)methyl)piperidin-4-yl)-3-((5-fluoro-4-(3-(2-oxopyridin-1(2H)-yl)phenyl)pyrimidin-2-yl)amino)cyclohexane-1-carboxamide], less than 500 nM; for `Cn1nc(C2CCC(=O)NC2=O)c2ccc(N3CCC(CN4CCC(NC(=O)[C@H]5CCC[C@@H](Nc6ncc(F)c(-c7cccc(-n8ccccc8=O)c7)n6)C5)CC4)CC3)cc21` (relative stereo) [Compound 332, cis-N-(1-((1-(3-(2,6-dioxopiperidin-3-yl)-1-methyl-1H-indazol-6-yl)piperidin-4-yl)methyl)piperidin-4-yl)-3-((5-fluoro-4-(3-(2-oxopyridin-1(2H)-yl)phenyl)pyrimidin-2-yl)amino)cyclohexane-1-carboxamide], less than 500 nM.
With `Cn1nc(C2CCC(=O)NC2=O)c2ccc(N3CCC(N4CCC(CNC(=O)[C@H]5CCC[C@@H](Nc6ncc(F)c(-c7cccc(-n8ccccc8=O)c7)n6)C5)CC4)CC3)cc21` (relative stereo) [Compound 333, cis-N-((1′-(3-(2,6-dioxopiperidin-3-yl)-1-methyl-1H-indazol-6-yl)-[1,4′-bipiperidin]-4-yl)methyl)-3-((5-fluoro-4-(3-(2-oxopyridin-1(2H)-yl)phenyl)pyrimidin-2-yl)amino)cyclohexane-1-carboxamide], the DC50 is less than 500 nM.
The value for `O=C1CCC(Nc2ccc(N3CCC(CN4CCC(NC(=O)[C@H]5CCC[C@@H](Nc6ncc(F)c(-c7cccc(-n8ccccc8=O)c7)n6)C5)CC4)CC3)c(F)c2)C(=O)N1` (relative stereo) [Compound 336, cis-N-(1-((1-(4-((2,6-dioxopiperidin-3-yl)amino)-2-fluorophenyl)piperidin-4-yl)methyl)piperidin-4-yl)-3-((5-fluoro-4-(3-(2-oxopyridin-1(2H)-yl)phenyl)pyrimidin-2-yl)amino)cyclohexane-1-carboxamide] was less than 500 nM.
